Test results from PubChem BioAssay AID248 (DTP/NCI, 2004).
Where “and” joins values, the source holds several entries; their conditions need not be identical. Identical values can stand only once. Toxic doses and inconclusive results are not listed. No stated cut-off is given here; in the data, active means T/C of 150% or more; inactive means T/C below 125%.

Test system: L1210 leukemia ip in BDF1 mice, survival T/C
Assay: NCI In Vivo Anticancer Drug Screen. Data for tumor model L1210 Leukemia (intraperitoneal) in B6D2F1 (BDF1) mice
Settings: endpoint: mean survival time, higher = longer survival
In short: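 Tumor cells were implanted, animals were treated, and survival was followed. The result divides the treated measurement by the vehicle-control measurement.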

[1] = dose: 12.5 mg/kg/injection, schedule: Q04DX002 (ip), vehicle: Klucel (hydroxypropylcellulose) (HPC)
[2] = dose: 25.0 mg/kg/injection, schedule: Q04DX002 (ip), vehicle: Klucel (hydroxypropylcellulose) (HPC)
[3] = dose: 75.0 mg/kg/injection, schedule: Q04DX003 (ip), vehicle: saline
[4] = dose: 150.0 mg/kg/injection, schedule: Q04DX003 (ip), vehicle: saline
[5] = dose: 300.0 mg/kg/injection, schedule: Q04DX003 (ip), vehicle: saline
[6] = dose: 100.0 mg/kg/injection, schedule: Q01DX009 (ip), vehicle: saline with Tween-80
[7] = dose: 100.0 mg/kg/injection, schedule: Q04DX003 (ip), vehicle: Klucel (hydroxypropylcellulose) (HPC)
[8] = dose: 200.0 mg/kg/injection, schedule: Q01DX009 (ip), vehicle: saline with Tween-80
[9] = dose: 200.0 mg/kg/injection, schedule: Q04DX003 (ip), vehicle: Klucel (hydroxypropylcellulose) (HPC)
[10] = dose: 400.0 mg/kg/injection, schedule: Q01DX009 (ip), vehicle: saline with Tween-80
[11] = dose: 400.0 mg/kg/injection, schedule: Q04DX003 (ip), vehicle: Klucel (hydroxypropylcellulose) (HPC)

Measured: T/C

CCC[CH2][Sn]([Cl])([Cl])[CH2]CCC.c1ccncc1
inactive: dose: 3.0 mg/kg/injection, schedule: Q01DX009 (ip), vehicle: Klucel (hydroxypropylcellulose) (HPC) 93 % of control | dose: 6.0 mg/kg/injection, schedule: Q01DX009 (ip), vehicle: Klucel (hydroxypropylcellulose) (HPC) 107 % of control | dose: 12.0 mg/kg/injection, schedule: Q01DX009 (ip), vehicle: Klucel (hydroxypropylcellulose) (HPC) 92 % of control | dose: 12.5 mg/kg/injection, schedule: Q01DX009 (ip), vehicle: Klucel (hydroxypropylcellulose) (HPC) 87 % of control | [1] 91 % of control | [2] 106 % of control

O=S(=O)(F)c1ccc(S)c(Cl)c1Cl
inactive: dose: 25.0 mg/kg/injection, schedule: Q04DX002 (ip), vehicle: saline with Tween-80 102 % of control | dose: 50.0 mg/kg/injection, schedule: Q04DX002 (ip), vehicle: saline with Tween-80 91 % of control | dose: 100.0 mg/kg/injection, schedule: Q04DX002 (ip), vehicle: saline with Tween-80 89 % of control

COC1=C(Br)C(=O)C(Br)=C(OC)C1=O
inactive: dose: 100.0 mg/kg/injection, schedule: Q04DX002 (ip), vehicle: other 107 % of control | dose: 200.0 mg/kg/injection, schedule: Q04DX002 (ip), vehicle: other 96 % of control

CCOC(=O)CC[P+](c1ccccc1)(c1ccccc1)c1ccccc1
inactive: dose: 75.0 mg/kg/injection, schedule: Q01DX001 (ip), vehicle: saline 103 % of control | [3] 106 % of control | dose: 150.0 mg/kg/injection, schedule: Q01DX001 (ip), vehicle: saline 109 % of control | [4] 105 % of control | dose: 300.0 mg/kg/injection, schedule: Q01DX001 (ip), vehicle: saline 101 % of control | [5] 107 % of control

COc1ccc(Oc2cccc3c2CCN(C)C3)cc1
inactive: [1] 102 % of control | [2] 115 % of control | dose: 50.0 mg/kg/injection, schedule: Q04DX002 (ip), vehicle: Klucel (hydroxypropylcellulose) (HPC) 97 % of control

CC(C)(C)N1C(=O)N(C(C)(C)C)C1=O
inactive: [6] 91 % of control | [7] 113 % of control | [8] 94 % of control | [9] 102 % of control | [10] 93 % of control | [11] 109 % of control

Cc1nc(N)[nH]c(=O)c1CCCNc1cccc(C(F)(F)F)c1
inactive: dose: 100.0 mg/kg/injection, schedule: Q01DX001 (ip), vehicle: Klucel (hydroxypropylcellulose) (HPC) 92 % of control | dose: 200.0 mg/kg/injection, schedule: Q01DX001 (ip), vehicle: Klucel (hydroxypropylcellulose) (HPC) 92 % of control | dose: 400.0 mg/kg/injection, schedule: Q01DX001 (ip), vehicle: Klucel (hydroxypropylcellulose) (HPC) 97 % of control

C=CCCCCCCCCC(=O)N(CCOC)CCOC
inactive: dose: 25.0 mg/kg/injection, schedule: Q01DX009 (ip), vehicle: saline with Tween-80 96 % of control | dose: 50.0 mg/kg/injection, schedule: Q01DX009 (ip), vehicle: saline with Tween-80 100 % of control | [6] 100 % of control and 91 % of control

OCC1OC(n2cnc3cncnc32)CC1O (configuration not stated)
inactive: dose: 100.0 mg/kg/injection, schedule: Q01DX001 (ip), vehicle: saline 103 % of control | dose: 200.0 mg/kg/injection, schedule: Q01DX001 (ip), vehicle: saline 97 % of control | dose: 400.0 mg/kg/injection, schedule: Q01DX001 (ip), vehicle: saline 107 % of control

Cc1cccc(Nc2cc(C)nc(N)n2)c1
inactive: dose: 25.0 mg/kg/injection, schedule: Q01DX Z (ip), vehicle: methylcellulose (MC) 105 % of control | dose: 50.0 mg/kg/injection, schedule: Q01DX Z (ip), vehicle: methylcellulose (MC) 100 % of control

C=C(Cl)CO
inactive: dose: 25.0 mg/kg/injection, schedule: Q04DX003 (ip), vehicle: saline 118 % of control | dose: 50.0 mg/kg/injection, schedule: Q04DX003 (ip), vehicle: saline 89 % of control

O=[N+]([O-])c1cccc(/C=N/n2cn[nH]c2=S)c1
inactive: [7] 94 % of control | [9] 94 % of control | [11] 96 % of control

O=CNC(O)C(Cl)(Cl)Cl (configuration not stated)
inactive: dose: 100.0 mg/kg/injection, schedule: Q01DX009 (ip), vehicle: saline 98 % of control | dose: 100.0 mg/kg/injection, schedule: Q04DX003 (ip), vehicle: saline 109 % of control | dose: 200.0 mg/kg/injection, schedule: Q01DX009 (ip), vehicle: saline 89 % of control | dose: 200.0 mg/kg/injection, schedule: Q04DX003 (ip), vehicle: saline 95 % of control | dose: 400.0 mg/kg/injection, schedule: Q01DX009 (ip), vehicle: saline 89 % of control | dose: 400.0 mg/kg/injection, schedule: Q04DX003 (ip), vehicle: saline 95 % of control

C[Si](C)(C)Cc1ccccc1F
inactive: dose: 25.6 mg/kg/injection, schedule: Q04DX002 (ip), vehicle: saline with Tween-80 101 % of control | dose: 64.0 mg/kg/injection, schedule: Q04DX002 (ip), vehicle: saline with Tween-80 93 % of control | dose: 160.0 mg/kg/injection, schedule: Q04DX002 (ip), vehicle: saline with Tween-80 104 % of control | dose: 400.0 mg/kg/injection, schedule: Q04DX002 (ip), vehicle: saline with Tween-80 90 % of control

Cc1c2c(cc3c1[nH]c1ccccc13)C(C)N(C)CC2 (configuration not stated)
active: dose: 150.0 mg/kg/injection, schedule: Q01DX Z (ip), vehicle: saline 166 % of control
inactive: dose: 14.6 mg/kg/injection, schedule: Q01DX Z (ip), vehicle: saline 110 % of control | dose: 22.0 mg/kg/injection, schedule: Q01DX Z (ip), vehicle: saline 111 % of control | dose: 32.5 mg/kg/injection, schedule: Q01DX015 (ip), vehicle: carboxymethylcellulose (CMC) 107 % of control | dose: 33.0 mg/kg/injection, schedule: Q01DX Z (ip), vehicle: saline 113 % of control | dose: 50.0 mg/kg/injection, schedule: Q01DX001 (ip), vehicle: carboxymethylcellulose (CMC) 109 % of control | dose: 50.0 mg/kg/injection, schedule: Q01DX Z (ip), vehicle: saline 119 % of control | dose: 75.0 mg/kg/injection, schedule: Q01DX015 (ip), vehicle: carboxymethylcellulose (CMC) 108 % of control | dose: 100.0 mg/kg/injection, schedule: Q01DX001 (ip), vehicle: carboxymethylcellulose (CMC) 109 % of control | dose: 150.0 mg/kg/injection, schedule: Q01DX015 (ip), vehicle: carboxymethylcellulose (CMC) 118 % of control | dose: 200.0 mg/kg/injection, schedule: Q01DX001 (ip), vehicle: carboxymethylcellulose (CMC) 106 % of control | dose: 200.0 mg/kg/injection, schedule: Q01DX Z (ip), vehicle: carboxymethylcellulose (CMC) 100 % of control | dose: 300.0 mg/kg/injection, schedule: Q01DX015 (ip), vehicle: carboxymethylcellulose (CMC) 118 % of control | dose: 300.0 mg/kg/injection, schedule: Q01DX Z (ip), vehicle: carboxymethylcellulose (CMC) 107 % of control | dose: 400.0 mg/kg/injection, schedule: Q01DX001 (ip), vehicle: carboxymethylcellulose (CMC) 98 % of control | dose: 750.0 mg/kg/injection, schedule: Q01DX001 (ip), vehicle: carboxymethylcellulose (CMC) 110 % of control | dose: 1500.0 mg/kg/injection, schedule: Q01DX001 (ip), vehicle: carboxymethylcellulose (CMC) 114 % of control

COC(=O)C1CCC2(C)C=CC(=O)C(C)C2C1 (configuration not stated)
inactive: [3] 100 % of control | [4] 100 % of control | [5] 96 % of control

NC(=S)c1ccncc1
inactive: [6] 104 % of control | dose: 100.0 mg/kg/injection, schedule: Q04DX003 (ip), vehicle: saline with Tween-80 103 % of control | [8] 104 % of control | dose: 200.0 mg/kg/injection, schedule: Q04DX003 (ip), vehicle: saline with Tween-80 109 % of control | [10] 112 % of control | dose: 400.0 mg/kg/injection, schedule: Q04DX003 (ip), vehicle: saline with Tween-80 101 % of control

COc1ccc(CN2CCCN(Cc3ccc(OC)cc3)C2c2c(O)ccc3ccccc23)cc1
inactive: dose: 5.0 mg/kg/injection, schedule: Q01DX001 (ip), vehicle: acetone 100 % of control | dose: 10.0 mg/kg/injection, schedule: Q01DX001 (ip), vehicle: acetone 95 % of control | dose: 20.0 mg/kg/injection, schedule: Q01DX001 (ip), vehicle: acetone 92 % of control | dose: 40.0 mg/kg/injection, schedule: Q01DX001 (ip), vehicle: acetone 88 % of control
